The values below come from US7432392B2, “Ester derivatives and medical use thereof” (Japan Tobacco Inc., priority 2003, dated 2008).

Structures are written as SMILES. Some results are limits rather than exact numbers.

The experiment has as its target T1, Microsomal triglyceride transfer protein (MTP) from bovine liver (Bos taurus, UniProt P55156).
T1 construct: the purified MTP was used for the test; from tissue; host or cells: bovine liver
T1 sequence (P55156 12-887): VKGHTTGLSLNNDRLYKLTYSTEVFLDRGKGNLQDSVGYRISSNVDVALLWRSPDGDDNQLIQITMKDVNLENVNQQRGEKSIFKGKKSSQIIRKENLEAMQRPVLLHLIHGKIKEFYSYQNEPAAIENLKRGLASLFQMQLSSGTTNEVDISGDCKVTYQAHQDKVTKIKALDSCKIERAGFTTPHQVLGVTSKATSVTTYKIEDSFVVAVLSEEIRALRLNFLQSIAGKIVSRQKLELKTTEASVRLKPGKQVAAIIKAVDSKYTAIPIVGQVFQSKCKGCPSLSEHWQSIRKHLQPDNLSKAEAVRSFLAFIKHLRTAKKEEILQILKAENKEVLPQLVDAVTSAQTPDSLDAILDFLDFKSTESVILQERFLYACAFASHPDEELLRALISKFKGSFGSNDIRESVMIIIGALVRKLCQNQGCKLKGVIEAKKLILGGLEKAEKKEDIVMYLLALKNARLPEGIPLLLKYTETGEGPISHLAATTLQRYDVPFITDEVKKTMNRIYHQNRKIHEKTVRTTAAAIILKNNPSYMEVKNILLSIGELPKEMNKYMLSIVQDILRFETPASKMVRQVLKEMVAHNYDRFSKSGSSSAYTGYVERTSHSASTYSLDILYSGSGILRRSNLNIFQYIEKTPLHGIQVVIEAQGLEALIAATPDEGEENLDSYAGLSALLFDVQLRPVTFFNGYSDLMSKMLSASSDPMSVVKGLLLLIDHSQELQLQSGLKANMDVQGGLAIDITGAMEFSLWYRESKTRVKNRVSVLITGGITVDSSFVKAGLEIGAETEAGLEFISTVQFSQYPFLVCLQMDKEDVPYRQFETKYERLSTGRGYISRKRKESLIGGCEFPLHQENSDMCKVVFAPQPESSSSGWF
T1 sequence (P05307 21-510 partner): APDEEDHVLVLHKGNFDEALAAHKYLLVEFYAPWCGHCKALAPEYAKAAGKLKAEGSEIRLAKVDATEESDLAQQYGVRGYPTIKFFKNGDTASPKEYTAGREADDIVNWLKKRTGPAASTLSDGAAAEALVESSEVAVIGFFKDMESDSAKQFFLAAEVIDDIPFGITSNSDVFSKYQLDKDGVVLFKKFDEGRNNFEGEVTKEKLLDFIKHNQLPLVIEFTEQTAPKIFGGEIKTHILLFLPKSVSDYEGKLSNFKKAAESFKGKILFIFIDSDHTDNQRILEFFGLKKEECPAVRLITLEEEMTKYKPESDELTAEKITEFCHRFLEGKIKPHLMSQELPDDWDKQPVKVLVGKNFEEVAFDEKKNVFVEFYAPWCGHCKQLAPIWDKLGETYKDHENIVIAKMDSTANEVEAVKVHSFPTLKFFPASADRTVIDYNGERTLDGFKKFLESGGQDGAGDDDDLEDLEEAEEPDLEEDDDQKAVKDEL
Description: Inhibition of interliposomal triglyceride (TG) transfer activity by MTP. In kind it is biochemical. Conditions: MTP-mediated TG transfer between donor and acceptor liposomes, 37° C., one hour. On the procedure:
Microsomal triglyceride transfer protein (MTP) from bovine liver was partially purified in such a way described below. A buffer (50 mM Tris, 250 mM sucrose, 1 mM EDTA, 0.02% NaN3 (pH 7.4)) for making a homogenate preparation was added to bovine liver, and the mixture was homogenated under ice-cooling, then centrifuged at 10,000×g (4° C., 30 minutes) The supernatant was adjusted to pH 5.1 with hydrochloric acid, and stirred for 30 minutes. The solution was further centrifuged at 10,000×g (4° C., 30 minutes), and 1 mM Tris buffer was added to the precipitated residue, and the mixture was adjusted to pH 8.6 with sodium hydroxide. After addition of 2.7 M ammonium sulfate solution, the mixture was stirred for 30 minutes, then centrifuged at 10,000×g (4° C., 40 minutes). The resulting supernatant was served as a crude extraction fraction of MTP and stored at −80° C. under freezing. In its practical use, the crude extraction fraction of MTP was purified by column chromatography on diethylaminoethyl (DEAE) Sepharose using FPLC (Fast Performance Liquid Chromatography) system, and the purified MTP was used for the test.
Small unilamellar-vesicle (SUV) liposome (donor, 0.25 mol % triolein, 5 mol % cardiolipin) labeled with ^14C-triolein and non-labeled SUV liposome (acceptor, 0.25 mol % triolein) were prepared. A fixed amount of donor and acceptor, and MTP were mixed with a sample dissolved in DMSO or with DMSO. The mixture was incubated in a 15 mM Tris hydrochloride buffer (pH 7.4) containing 40 mM sodium chloride, 1 mM EDTA (ethylenediaminetetraacetic acid), 0.02% NaN3 and 0.5% bovine serum albumin at 37° C. for one hour. After completion of the incubation, a suspension of DEAE cellulose (50% v/v) in 15 mM Tris hydrochloride buffer (pH 7.4) was added to the above solution, and the mixture was centrifuged to separate the donor and the acceptor. The radioactivity in the acceptor was measured by liquid scintillation counter. The value obtained by subtracting the radioactivity in the blank from the amount of radioactivity in the acceptor of a DMSO group was determined as MTP-mediated TG transfer activity, and it was compared with the value obtained by subtracting the radioactivity in the blank from the radioactivity in a sample group. The blank was prepared by adding 15 mM Tris-HCl buffer (pH 7.4) in place of MTP. Inhibition rate (%) was calculated from the values obtained according to the following equation.
Inhibition rate (%)=100×(1 minus ((radioactivity of sample group minus radioactivity of blank group)/(radioactivity of DMSO group minus radioactivity of blank group))). 50% Inhibition rate (IC50) was determined on the basis of the above equation.
In general, IC50 refers to the midpoint of a concentration-inhibition curve. A higher IC50 goes with weaker potency in that assay. `CCOC(=O)C(COC(=O)Oc1cc(C(=O)N(C)C)c(NC(=O)c2ccccc2-c2ccc(C(F)(F)F)cc2)cc1F)(C(=O)OCC)c1ccccc1` [Example 2, 2-{5-Dimethylcarbamoyl-2-fluoro-4-[(4′-trifluoromethyl-biphenyl-2-carbonyl)amino]phenoxycarbonyloxymethyl}-2-phenylmalonic acid diethyl ester] showed an IC50 of under 10 nM. The figure for `CCOC(=O)C(COC(=O)Oc1ccc(NC(=O)c2ccccc2-c2ccc(C(F)(F)F)cc2)c(C(=O)N(C)C)c1)(C(=O)OCC)c1ccccc1` [Example 2-4] is under 10 nM; for `CCOC(=O)C(COC(=O)Oc1ccc(NC(=O)c2cnc(N(C)C)nc2-c2ccc(C(F)(F)F)cc2)c(C(=O)N(C)C)c1)(C(=O)OCC)c1ccccc1` [Example 2-28] it is under 10 nM; for `CCOC(=O)C(COC(=O)Oc1c(F)cc(NC(=O)c2c(C)cccc2-c2ccc(C(F)(F)F)cc2)c(C(=O)N(C)C)c1F)(C(=O)OCC)c1cccs1` [Example 2-39] it is under 10 nM.

In turn, `CCOC(=O)C(COC(=O)Oc1ccc(NC(=O)c2cccnc2-c2ccc(C(F)(F)F)cc2)c(C(=O)N(C)C)c1)(C(=O)OCC)c1ccccc1` [Example 2-25] returned a 50% inhibitory concentration (IC50) of under 10 nM.

`CCNC(=O)C(COC(=O)Oc1cc(C(=O)N(C)C)c(NC(=O)c2ccccc2-c2ccc(C(F)(F)F)cc2)cc1F)(C(=O)NCC)c1ccccc1` [Example 2-11] had an IC50 of 100 to 1000 nM. For the compound `CCOC(=O)C(COC(=O)Oc1c(F)cc(NC(=O)c2ccccc2-c2ccc(C(F)(F)F)cc2)c(OC)c1F)(C(=O)OCC)c1cccs1` [Example 2-48], the IC50 was under 10 nM.

The compound `CCOC(=O)C(COC(=O)Oc1c(F)cc(NC(=O)c2ccccc2-c2ccc(C(F)(F)F)cc2)c(C(=O)N2CCC(O)CC2)c1F)(C(=O)OCC)c1cccs1` [Example 2-47] gave a 50% inhibitory concentration (IC50) of 100 to 1000 nM. As for `CCNC(=O)C(CCCCC(=O)Oc1c(F)cc(NC(=O)c2ccccc2-c2ccc(C(F)(F)F)cc2)c(C(=O)N(C)C)c1F)(C(=O)NCC)c1cccs1` [Example 3-15], the IC50 was in the range of 100 to 1000 nM. In the case of `CCN(C)C(=O)C(COC(=O)Oc1c(F)cc(NC(=O)c2ccccc2-c2ccc(C(F)(F)F)cc2)c(C(=O)N(C)C)c1F)(C(=O)N(C)CC)c1ccccc1` [Example 2-31], the 50% inhibitory concentration (IC50) lay within 10 to 100 nM. Turning to `CCCC(=O)Oc1cc(CC(=O)OCC(C(=O)OCC)(C(=O)OCC)c2ccccc2)ccc1NC(=O)c1ccc(C)cc1-c1ccc(C(F)(F)F)cc1` [Example 1-7], the IC50 was under 10 nM. The figure for `CCOC(=O)C(COC(=O)Oc1c(F)cc(NC(=O)c2ccccc2-c2ccc(C(F)(F)F)cc2)cc1F)(C(=O)OCC)c1cccs1` [Example 2-49] is under 10 nM; for `CCOC(=O)C(COC(=O)Oc1ccc(NC(=O)c2ccccc2-c2ccc(C(F)(F)F)cc2)c(C(=O)N2CCCC2)c1)(C(=O)OCC)c1ccccc1` [Example 2-14] it is under 10 nM. Compound `CCOC(=O)C(COC(=O)Oc1c(F)cc(NC(=O)c2cccc(F)c2-c2ccc(C(F)(F)F)cc2)c(C(=O)N(C)C)c1F)(C(=O)OCC)c1cccs1` [Example 2-33] showed an IC50 of under 10 nM. Then `CCOC(=O)C(COC(=O)Oc1c(F)cc(NC(=O)c2ccccc2-c2ccc(C(F)(F)F)cc2)c(C(=O)N(C)CCOC)c1F)(C(=O)OCC)c1cccs1` [Example 2-41], with under 10 nM; and `CCOC(=O)C(COC(=O)Oc1c(F)cc(NC(=O)c2ccccc2-c2ccc(C(F)(F)F)cc2)c(C(=O)N2CCN(C(C)=O)CC2)c1F)(C(=O)OCC)c1cccs1` [Example 2-46], with 100 to 1000 nM; and `CCOC(=O)C(COC(=O)Oc1c(F)cc(NC(=O)c2ccccc2-c2ccc(C(F)(F)F)cc2)c(OCC)c1F)(C(=O)OCC)c1cccs1` [Example 2-51], with under 10 nM. In turn, `CCOC(=O)C(COC(=O)Oc1ccc(N(C)C(=O)c2ccccc2-c2ccc(C(F)(F)F)cc2)c(C(=O)N(C)C)c1)(C(=O)OCC)c1ccccc1` [Example 2-17] gave an IC50 of 100 to 1000 nM. `CCOC(=O)C(COC(=O)Oc1ccc(NC(=O)c2ccc(C)cc2-c2ccc(C(F)(F)F)cc2)c(C(=O)N(C)C)c1)(C(=O)OCC)c1ccccc1` [Example 2-8] had an IC50 of under 10 nM. With `CCOC(=O)C(COC(=O)Cc1ccc(N(C)C(=O)c2ccccc2-c2ccc(C(F)(F)F)cc2)c(OC(C)=O)c1)(C(=O)OCC)c1ccccc1` [Example 1-8], the IC50 was under 10 nM. Compound `CCOC(=O)C(CC(=O)Oc1ccc(NC(=O)c2ccccc2-c2ccc(C(F)(F)F)cc2)c(C(=O)N(C)C)c1)(C(=O)OCC)c1ccccc1` [Example 3-4] registered an IC50 of under 10 nM. In the case of `CCOC(=O)C(CCC(=O)OCc1ccc(NC(=O)c2ccccc2-c2ccc(C(F)(F)F)cc2)c(C(=O)N(C)C)c1)(C(=O)OCC)c1ccccc1` [Example 3-7], the IC50 was under 10 nM. In the case of `CCOC(=O)C(COC(=O)Oc1ccc(NC(=O)c2ccccc2-c2ccc(C(F)(F)F)cc2)c(C(=O)N(C)C)c1)(C(=O)OCC)c1ccccn1` [Example 2-18], the IC50 was under 10 nM. Then `CCNC(=O)C(COCCC(=O)Oc1c(F)cc(NC(=O)c2ccccc2-c2ccc(C(F)(F)F)cc2)c(C(=O)N(C)C)c1F)(C(=O)NCC)c1ccccc1` [Example 3-16], with under 10 nM; and `CCOC(=O)C(CCC(=O)Oc1cc(C(=O)N(C)C)c(NC(=O)c2ccccc2-c2ccc(C(F)(F)F)cc2)cc1F)(C(=O)OCC)c1ccccc1` [Example 3-6], with under 10 nM. Turning to `CCOC(=O)C(COC(=O)Oc1cc(C(=O)N(C)C)c(NC(=O)c2ccccc2-c2ccc(C(F)(F)F)cc2)cc1C)(C(=O)OCC)c1ccccc1` [Example 2-15], the IC50 is under 10 nM. The compound `CCOC(=O)C(COC(=O)Oc1c(F)cc(NC(=O)c2ccc(C(F)(F)F)cc2-c2ccc(C(F)(F)F)cc2)c(C(=O)N(C)C)c1F)(C(=O)OCC)c1cccs1` [Example 2-32] yielded an IC50 of under 10 nM. Take `CCOC(=O)C(COC(=O)Oc1c(F)cc(NC(=O)c2ccc(C)nc2-c2ccc(C(F)(F)F)cc2)c(C(=O)N(C)C)c1F)(C(=O)OCC)c1cccs1` [Example 2-30]: the IC50 is under 10 nM. In turn, `CCOC(=O)C(COC(=O)Oc1c(F)cc(NC(=O)c2ccccc2-c2ccc(C(F)(F)F)cc2)c(OC(C)C)c1F)(C(=O)OCC)c1cccs1` [Example 2-52] came in with a half-maximal inhibitory concentration (IC50) of under 10 nM.

As to `CCOC(=O)C(CCC(=O)Oc1ccc(N(C)C(=O)c2ccccc2-c2ccc(C(F)(F)F)cc2)c(C(=O)N(C)C)c1)(C(=O)OCC)c1ccccc1` [Example 3-8], the IC50 is under 10 nM.
